Assay results as given in PubChem BioAssay AID1259411 (Chemical Carcinogenesis Research Information System (CCRIS), 2018).
Activity calls are given as the source filed them. The rule behind the calls is not given here.

System: rodent carcinogenicity bioassays, tumor incidence
Assay: CCRIS carcinogenicity studies
Outline: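 NCI-built, expert-reviewed records of carcinogenicity and related test outcomes (mutagenicity, tumor promotion/inhibition) compiled from published and report sources, historical span 1985-2011, not updated.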

For `CC1(c2ccc(Oc3ccccc3)cc2)OC(=O)N(Nc2ccccc2)C1=O` (centres undefined), the carcinogen call (Species: Mouse, Strain/Sex: CRL: CD1 (ICR)BR/Female (60/Group), Route: Oral, Dose: 0, 1.0, 9.8, 130, 392 mg/kg/day of 97.4% famoxadone in diet for 18 mo, study duration 18 mo, Dose: 0, 1.0, 9.8, 130, 392 mg/kg/day of 97.4% famoxadone in diet for 18 mo, study duration 18 mo) was “inactive; negative”, the carcinogen call (Species: Mouse, Strain/Sex: CRL: CD1 (ICR)BR/Male (60/Group), Route: Oral, Dose: 0, 0.7, 6.8, 96, 274 mg/kg/day of 97.4% famoxadone in diet for 18 mo, study duration 18 mo, Dose: 0, 0.7, 6.8, 96, 274 mg/kg/day of 97.4% famoxadone in diet for 18 mo, study duration 18 mo) was “inactive; negative” and the carcinogen call (Species: Rat, Strain/Sex: CRL: CD BR/Female (62/Group), Route: Oral, Dose: 0, 0.53, 2.15, 10.7, 23.0 mg/kg/day of 97.4% famoxadone in diet for 24 mo, study duration 24 mo, Dose: 0, 0.53, 2.15, 10.7, 23.0 mg/kg/day of 97.4% famoxadone in diet for 24 mo, study duration 24 mo) was “inactive; negative”. The carcinogen call (Species: Rat, Strain/Sex: CRL: CD BR/Male (62/Group), Route: Oral, Dose: 0, 0.42, 1.62, 8.4, 16.8 mg/kg/day of 97.4% famoxadone in diet for 23 mo, study duration 23 mo, Dose: 0, 0.42, 1.62, 8.4, 16.8 mg/kg/day of 97.4% famoxadone in diet for 23 mo, study duration 23 mo) was “inactive; negative”.
For `CO[Si](CCCOCC1CO1)(OC)OC` (centres undefined), the carcinogen call (Species: MOUSE, Strain/Sex: C3H/MALE, Route: DERMAL, Dose: 0, 5 MG IN ACETONE 3/WK FOR DURATION OF STUDY (STUDY DURATION: LIFETIME)) was “inactive; negative”.
`COc1cc(OC)nc(Oc2cccc(Oc3nc(OC)cc(OC)n3)c2C(=O)O)n1` was tested, and the carcinogen call (Species: Mouse, Strain/Sex: B6C3F1/Female (50/sex/dose), Route: Oral, Dose: 0, 10, 100, 2500, 5000 ppm in diet for 104 wk, Dose: 0, 10, 100, 2500, 5000 ppm in diet for 104 wk) was “inactive; negative; purity 98.4%; interim sacrifices of 10 additional animals/sex/dose at”, the carcinogen call (Species: Mouse, Strain/Sex: B6C3F1/Male (50/sex/dose), Route: Oral, Dose: 0, 10, 100, 2500, 5000 ppm in diet for 104 wk, Dose: 0, 10, 100, 2500, 5000 ppm in diet for 104 wk) was “inactive; negative; purity 98.4%; interim sacrifices of 10 additional animals/sex/dose at” and the carcinogen call (Species: Rat, Strain/Sex: F344/Female (48/sex/dose), Route: Oral, Dose: 0, 20, 200, 3000, 10000 ppm in diet for 104 wk, Dose: 0, 20, 200, 3000, 10000 ppm in diet for 104 wk) was “inactive; negative; purity 97.2%; interim sacrifices of 10 additional animals/sex/dose at”. The carcinogen call (Species: Rat, Strain/Sex: F344/Male (48/sex/dose), Route: Oral, Dose: 0, 20, 200, 3500, 7000 ppm in diet for 104 wk, Dose: 0, 20, 200, 3500, 7000 ppm in diet for 104 wk) was “inactive; negative; purity 97.2%; interim sacrifices of 10 additional animals/sex/dose at”.
`O=S1(=O)CCCO1` was tested, and the carcinogen call (Species: MOUSE, Strain/Sex: ICR/FEMALE, Route: SUBCUTANEOUS, Dose: 0.3 MG IN WATER 1/WK FOR 63 WK, Tumor Site: Type of Lesion: INJECTION SITE: ADENOACANTHOMA, SARCOMA) was “active; positive”, the carcinogen call (Species: RAT, Strain/Sex: STRAIN-BD, Route: SUBCUTANEOUS, Dose: 15, 30 MG/KG IN ARACHIS OIL 1/WK FOR 1 YR, Tumor Site: Type of Lesion: INJECTION SITE: MYOSARCOMA, FIBROSARCOMA) was “active; positive” and the carcinogen call (Species: RAT, Strain/Sex: STRAIN-BD, Route: SUBCUTANEOUS, Dose: 15, 30 MG/KG IN WATER 1/WK FOR 1 YR, Tumor Site: Type of Lesion: INJECTION SITE: SARCOMA) was “active; positive”. The carcinogen call (Species: RAT, Strain/Sex: STRAIN-CD/FEMALE, Route: GAVAGE, Dose: 28, 56 MG/KG IN WATER 2/WK FOR 78 WK (LOW DOSE) OR 32 WK (HIGH DOSE), Tumor Site: Type of Lesion: BRAIN (CEREBELLUM, CEREBRUM): MALIGNANT GLIOMA, MAMMARY GLAND: ADENOCARCINOMA) was “active; positive” and the carcinogen call (Species: RAT, Strain/Sex: STRAIN-CD/MALE, Route: GAVAGE, Dose: 28, 56 MG/KG IN WATER 2/WK FOR 78 WK (LOW DOSE) OR 32 WK (HIGH DOSE), Tumor Site: Type of Lesion: BRAIN (CEREBELLUM, CEREBRUM): MALIGNANT GLIOMA) was “active; positive”.
`CN(C)N=Nc1ccccc1` was tested, and the carcinogen call (Species: RAT, Strain/Sex: SPRAGUE-DAWLEY/FEMALE, Route: INTRAPERITONEAL, TRANSPLACENTAL, Dose: 0, 1 MG/KG ADMINISTERED TO PREGNANT RATS ON DAY 16, 18 AND 20 OF GESTATION (STUDY DURATION: 1 YR), Tumor Site: Type of Lesion: KIDNEY: RENAL MESENCHYMAL TUMOR) was “active; positive”, the carcinogen call (Species: RAT, Strain/Sex: SPRAGUE-DAWLEY/FEMALE, Route: INTRAPERITONEAL, TRANSPLACENTAL, Dose: 0, 10, 30, 60 MG/KG ADMINISTERED TO PREGNANT RATS ON DAY 20 OF GESTATION (STUDY DURATION: 1 YR), Dose: 0, 10, 30, 60 MG/KG ADMINISTERED TO PREGNANT RATS ON DAY 20 OF GESTATION (STUDY DURATION: 1 YR)) was “inactive; negative” and the carcinogen call (Species: RAT, Strain/Sex: SPRAGUE-DAWLEY/MALE,FEMALE, Route: SUBCUTANEOUS, Dose: 50 MG/KG 1/WK FOR LIFE, Tumor Site: Type of Lesion: BRAIN, NERVOUS SYSTEM (CENTRAL)) was “active; positive”. The carcinogen call (Species: RAT, Strain/Sex: SPRAGUE-DAWLEY/MALE, Route: INTRAPERITONEAL, TRANSPLACENTAL, Dose: 0, 1 MG/KG ADMINISTERED TO PREGNANT RATS ON DAY 16, 18 AND 20 OF GESTATION (STUDY DURATION: 1 YR), Tumor Site: Type of Lesion: BRAIN: TUMOR, DENTITIOUS TISSUE: ODONTOMA) was “active; positive”, the carcinogen call (Species: RAT, Strain/Sex: SPRAGUE-DAWLEY/MALE, Route: INTRAPERITONEAL, TRANSPLACENTAL, Dose: 0, 10, 30, 60 MG/KG ADMINISTERED TO PREGNANT RATS ON DAY 20 OF GESTATION (STUDY DURATION: 1 YR), Dose: 0, 10, 30, 60 MG/KG ADMINISTERED TO PREGNANT RATS ON DAY 20 OF GESTATION (STUDY DURATION: 1 YR)) was “inactive; negative” and the carcinogen call (Species: RAT, Strain/Sex: STRAIN-BD, Route: ORAL, SUBCUTANEOUS, Dose: 24.8, 43.4 MG/KG 1/WK (MEAN TOTAL DOSE 1.5 G/KG), Tumor Site: Type of Lesion: BRAIN, NERVOUS SYSTEM) was “active; positive”.
With `COCCl` the carcinogen call (Species: MOUSE, Strain/Sex: ICR/FEMALE, Route: SUBCUTANEOUS, Dose: 300 UG IN 0.05 ML NUJOL 1/WK FOR 685 D, Tumor Site: Type of Lesion: INJECTION SITE: SARCOMA) was “active; positive”.
`FC(F)(F)CCl` was tested, and the carcinogen call (Species: RAT, Strain/Sex: WISTAR/FEMALE, Route: GAVAGE, Dose: 300 MG/KG IN CORN OIL 5/WK FOR 52 WK, Tumor Site: Type of Lesion: UTERUS: ADENOCARCINOMA) was “active; positive” and the carcinogen call (Species: RAT, Strain/Sex: WISTAR/MALE, Route: GAVAGE, Dose: 300 MG/KG IN CORN OIL 5/WK FOR 52 WK, Tumor Site: Type of Lesion: TESTES: INTERSTITIAL CELL TUMOR) was “active; positive”.
For `Cc1cc(C)nc(NS(=O)(=O)c2ccc(N)cc2)n1`, the carcinogen call (Species: RAT, Strain/Sex: F344/FEMALE, Route: ORAL, TRANS-PLACENTAL, Dose: 0, 10, 40, 600 1200, 2400 PPM IN DIET FOR 24 MO (PARENTS FED 0; 10; 600; 1200; 2400 PPM RESPECTIVELY IN DIET) (STUDY DUR, Dose: 0, 10, 40, 600 1200, 2400 PPM IN DIET FOR 24 MO (PARENTS FED 0; 10; 600; 1200; 2400 PPM RESPECTIVELY IN DIET) (STUDY DUR, Tumor Site: Type of Lesion: THYROID GLAND: FOLLICULAR CELL ADENOCARCINOMA) was “active; positive” and the carcinogen call (Species: RAT, Strain/Sex: F344/MALE, Route: ORAL, TRANS-PLACENTAL, Dose: 0, 10, 40, 600 1200, 2400 PPM IN DIET FOR 24 MO (PARENTS FED 0; 10; 600; 1200; 2400 PPM RESPECTIVELY IN DIET) (STUDY DUR, Dose: 0, 10, 40, 600 1200, 2400 PPM IN DIET FOR 24 MO (PARENTS FED 0; 10; 600; 1200; 2400 PPM RESPECTIVELY IN DIET) (STUDY DUR, Tumor Site: Type of Lesion: THYROID GLAND: FOLLICULAR CELL ADENOCARCINOMA) was “active; positive”.
For `CCOC(=O)C(C)Oc1ccc(Oc2nc3ccc(Cl)cc3o2)cc1` (centres undefined), the carcinogen call (Species: Mouse, Strain/Sex: Strain not given in source/Female (50/Group), Route: Oral, Dose: 0, 2.5, 10, 40 ppm in diet for 24 mo, study duration 24 mo, Dose: 0, 2.5, 10, 40 ppm in diet for 24 mo, study duration 24 mo) was “inactive; negative”, the carcinogen call (Species: Mouse, Strain/Sex: Strain not given in source/Male (50/Group), Route: Oral, Dose: 0, 2.5, 10, 40 ppm in diet for 24 mo, study duration 24 mo, Dose: 0, 2.5, 10, 40 ppm in diet for 24 mo, study duration 24 mo) was “inactive; negative” and the carcinogen call (Species: Rat, Strain/Sex: Strain not given in source/Female (60/Group), Route: Oral, Dose: 0, 5, 30, 180 ppm (0; 0.33; 2.00; 11.87 mg/kg) in diet for up to 28 mo, study duration 28 mo, Dose: 0, 5, 30, 180 ppm (0; 0.33; 2.00; 11.87 mg/kg) in diet for up to 28 mo, study duration 28 mo) was “inactive; negative”. The carcinogen call (Species: Rat, Strain/Sex: Strain not given in source/Male (60/Group), Route: Oral, Dose: 0, 5, 30, 180 ppm (0; 0.26; 1.58; 9.43 mg/kg) in diet for up to 28 mo, study duration 28 mo, Dose: 0, 5, 30, 180 ppm (0; 0.26; 1.58; 9.43 mg/kg) in diet for up to 28 mo, study duration 28 mo) was “inactive; negative”.
